What was measured:
water solubility = format: physicochemical; conditions: particularly at physiologic pH
neutrophils [1] = experiment: PMA-dependent O2 consumption of neutrophils; format: cell-based, human
B16BL6 melanoma cells = experiment: metastasis of B16BL6 melanoma cells (lung metastatic deposits in mice); format: in vivo, mouse; conditions: BL6 cells injected into mice; irrespective of route or timing
Description: BL6 cells were injected into mice and metastatic deposits in the lung were assessed after various treatments including route and timing, of administration.

erythrocyte = erythrocyte metabolic activity under blood storage conditions; format: cell-based; conditions: in vitro, normal blood storage conditions; reduction of erythrocyte enzyme activity
Source text: Similar results can be expected for leukocytes and platelets.

BL6 cells = experiment: tritiated thymidine incorporation, cell growth; format: cell-based, mouse; conditions: BL6 cells in vitro
Description: (§1) An in vitro assay relying on tritiated thymidine incorporation can be used to ascertain the effect of various compounds on cell proliferation. Briefly, tumor cells are seeded in flat bottom 96 well plates (Corning, N.Y.) at a concentration of 2×10^4 cells per well. The cells were cultured for 2 days in DMEM containing various concentrations of sphingoid which was added as a PBS solution. The medium then was supplemented with tritiated thymidine at a concentration of 0.5 μCi per well. Following a six hour incubation the cells were collected using the PHD Cell Harvester (Cambridge Technology, Cambridge, Mass.) and amounts of incorporated radioactivity were determined after adding a suitable cell lysing agent and scintillation cocktail, such as ScintiVerse BD (Fisher Scientific, Fairlawn, Calif.) which performs both functions.
(§2) Certain cancer cells show a higher metastatic potential and invasive capability than others. For example, in the mouse, the BL6 and F10 melanoma cell lines are highly metastatic and invasive. On the other hand, the F1 variant is much less metastatic and invasive (I. R. Hart et al., Amer. J. Pathol., 97, 587-592 (1979); G. Poote et al., Cancer Res. 42, 2770-2778 (1982); F1 and F10 clones from ATCC CRL 6323, and CRL 6475, respectively). BL6 and F1 cells were tested in vitro as described above. […]

F1 cells = experiment: tritiated thymidine incorporation, cell growth; format: cell-based, mouse; conditions: F1 cells in vitro
Description: as §1, §2

HL60 cells = experiment: HL60 adhesion on activated platelet-coated solid phase; format: cell-based, human; conditions: thrombin-stimulated and PMA-stimulated platelets
Description: HL60 (a human promylelocytic cell line available from the ATCC under accession number CCL 240) adhesion on resting or activated platelet-coatedsolid phase was evaluated as follows. Each well of a 48-well plate (Costar Scientific, Cambridge, Mass.) was filled with a poly-L-lysine solution (100 μg/ml in PBS) and incubated for 1 hour. Each well then was washed with PBS and then 150 μl of PBS containing 6×10^7 resting or activated platelets were added to each well and the plate was incubated for 1 hour. Plates were centrifuged (300×g for 7 minutes) and incubated a further 30 minutes at room temperature. Bound platelets were fixed by addition of 0.1% (w/v) glutaraldehyde in PBS for 2 minutes at 4° C. Each well was washed with 10 mM glycine in PBS and plates were incubated with 5% (w/v) BSA containing 0.1% (w/v) sodium azide, 10 mM glycine in PBS for 1 hour at room temperature.

neutrophils [2] = experiment: fMLP-enhanced 32P incorporation into PI, PIP and PIP2 in neutrophils; format: cell-based, human; conditions: fMLP 1 μM; pre-incubation of neutrophils
Description: Metabolic incorporation of [^32 P]sodium phosphate (4 mCi) into phosphatidylinositol (PI), phosphatidylinositol-4-phosphate (PIP) and phosphatidylinositol-4,5-bis-diphosphate (PIP2) is enhanced by chemotactic peptide fMLP (1 μM).

## CCCCCCCCCCCCC/C=C/C(O)C(CO)[N+](C)(C)C (centres unmarked) [TMS, N,N,N-trimethylsphingosine]
Water solubility
  water solubility: highly water soluble
Neutrophils [1]
  PMA-dependent enhancement of O2 consumption: inhibited strongly
B16BL6 melanoma cells
  lung colonization and tumor development: effective in suppressing
erythrocyte
  erythrocyte metabolic activity: retards erythrocyte metabolic activity
BL6 cells
  inhibiting cell growth: more effective than DMS and sphingosine
F1 cells
  inhibiting cell growth: more effective than DMS and sphingosine
HL60 cells
  HL60 cell binding: inhibited strongly
Neutrophils [2]
  fMLP-dependent enhancement of 32P incorporation into PI, PIP and PIP2: suppressed strongly
